Experimental findings from US20240299386A1, “Novel imidazole derivatives having protein kinase inhibitory activity and uses thereof” (INDUSTRY-UNIVERSITY COOPERATION FOUNDATION HANYANG …, priority 2021, published 2024) are described below.

The structures appear in SMILES notation.

The assay concerns the target JNK3 (Homo sapiens, UniProt P53779). Put plainly: Measurement of JNK3 enzyme activity. It counts as biochemical. The text has this: Experimental Example 1. Measurement of JNK3 Enzyme Activity

Sequence of JNK3 (P53779 whole entry, species assumed): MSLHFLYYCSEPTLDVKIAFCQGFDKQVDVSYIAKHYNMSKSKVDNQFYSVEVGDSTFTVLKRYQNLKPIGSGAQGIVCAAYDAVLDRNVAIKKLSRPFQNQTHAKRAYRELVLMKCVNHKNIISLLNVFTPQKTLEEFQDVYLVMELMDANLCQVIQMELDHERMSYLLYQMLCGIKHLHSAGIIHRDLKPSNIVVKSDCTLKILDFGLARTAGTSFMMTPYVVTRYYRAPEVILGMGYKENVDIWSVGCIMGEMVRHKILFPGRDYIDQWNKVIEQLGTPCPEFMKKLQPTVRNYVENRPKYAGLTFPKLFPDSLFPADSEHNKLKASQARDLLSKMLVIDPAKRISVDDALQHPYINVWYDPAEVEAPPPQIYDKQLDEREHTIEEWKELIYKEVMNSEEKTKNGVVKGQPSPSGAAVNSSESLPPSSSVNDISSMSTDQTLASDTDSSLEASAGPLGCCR

Consider `NC(=O)C1Cc2nc(-c3ccc(F)c(C(F)(F)F)c3)n(-c3ccnc(N[C@@H]4CCN(C(=O)C5CC5)C4)n3)c2C1` (stereo partly drawn) [Compound 21a, 1-(2-(((R)-1-(cyclopropanecarbonyl)pyrrolidine-3-yl)amino)pyrimidin-4-yl)-2-(4-fluoro-3-(trifluoromethyl)phenyl)-1,4,5,6-tetracyclopenta[d]imidazol-5-carboxamide], for which the IC50 (Table 1) was > 1000 nM.
For `CCOC(=O)C1Cc2nc(-c3ccc(Cl)c(Cl)c3)n(-c3ccnc(N[C@H]4CCCN(C(=O)C5CC5)C4)n3)c2C1` (stereo partly drawn) [Compound 18b, ethyl 1-(2-(((S)-1-(cyclopropanecarbonyl)piperidin-3-yl)amino)pyrimidin-4-yl)-2-(3,4-dichlorophenyl)-1,4,5,6-tetracyclopenta[d]imidazol-5-carboxylate], the IC50 (Table 2) is < 30 nM.
As to `CCOC(=O)C1Cc2nc(-c3ccc4ccccc4c3)n(-c3ccnc(N[C@H]4CCN(C(=O)C5CC5)C4)n3)c2C1` (stereo partly drawn) [Compound 16c, ethyl 1-(2-(((S)-1-(cyclopropanecarbonyl)pyrrolidine-3-yl)amino)pyrimidin-4-yl)-2-(naphthalen-2-yl)-1,4,5,6-tetracyclopenta[d]imidazol-5-carboxylate], the IC50 (Table 3) is < 30 nM.
In the case of `CNC(=O)C1Cc2nc(-c3ccc(F)c(C(F)(F)F)c3)n(-c3ccnc(N[C@H]4CCN(C(=O)C5CC5)C4)n3)c2C1` (stereo partly drawn) [Compound 24a, 1-(2-(((S)-1-(cyclopropanecarbonyl)pyrrolidine-3-yl)amino)pyrimidin-4-yl)-2-(4-fluoro-3-(trifluoromethyl)phenyl)-N-methyl-1,4,5,6-tetracyclopenta[d]imidazol-5-carboxamide], the IC50 (Table 1) is > 1000 nM.
On to `CCOC(=O)C1Cc2nc(-c3ccc4c(c3)CCO4)n(-c3ccnc(N[C@H]4CCN(C(=O)C5CC5)C4)n3)c2C1` (stereo partly drawn) [Compound 16e, ethyl 1-(2-(((S)-1-(cyclopropanecarbonyl)pyrrolidine-3-yl)amino)pyrimidin-4-yl)-2-(2,3-dihydrobenzofuran-5-yl)-1,4,5,6-tetracyclopenta[d]imidazol-5-carboxylate], for which the IC50 (Table 5) is > 1000 nM.
Take `CNC(=O)C1Cc2nc(-c3ccc4c(c3)OCO4)n(-c3ccnc(NC4CCN(C(=O)C5CC5)C4)n3)c2C1` (single isomer, unassigned) [Compound 24d]: the IC50 (Table 4) was > 1000 nM.
As to `CCOC(=O)C1Cc2nc(-c3ccc(F)c(C(F)(F)F)c3)n(-c3ccnc(N[C@@H]4CCCN(C(=O)C5CC5)C4)n3)c2C1` (stereo partly drawn) [Compound 19a, ethyl 1-(2-(((R)-1-(cyclopropanecarbonyl)piperidin-3-yl)amino)pyrimidin-4-yl)-2-(4-fluoro-3-(trifluoromethyl)phenyl)-1,4,5,6-tetracyclopenta[d]imidazol-5-carboxylate], the IC50 (Table 1) was < 30 nM.
On to `CCOC(=O)C1Cc2nc(-c3ccc4c(c3)CCO4)n(-c3ccnc(N[C@@H]4CCN(C(=O)C5CC5)C4)n3)c2C1` (stereo partly drawn) [Compound 17e, ethyl 1-(2-(((R)-1-(cyclopropanecarbonyl)pyrrolidine-3-yl)amino)pyrimidin-4-yl)-2-(2,3-dihydrobenzofuran-5-yl)-1,4,5,6-tetracyclopenta[d]imidazol-5-carboxylate], for which the IC50 (Table 5) is < 30 nM.
Regarding `NC(=O)C1Cc2nc(-c3ccc4ccccc4c3)n(-c3ccnc(N[C@H]4CCN(C(=O)C5CC5)C4)n3)c2C1` (stereo partly drawn) [Compound 20c, 1-(2-(((S)-1-(cyclopropanecarbonyl)pyrrolidine-3-yl)amino)pyrimidin-4-yl)-2-(naphthalen-2-yl)-1,4,5,6-tetracyclopenta[d]imidazol-5-carboxamide], the 50% inhibitory concentration (IC50) (Table 3) was < 30 nM.

One may read the IC50 as the concentration needed to halve the response being measured. Higher therefore signals weaker potency in that assay.
